Test [1] addresses T1, human FABP3 (Homo sapiens, UniProt P05413).
T1 construct: His-tag (N); TEV cleavage site (N); made in house; host or cells: E. coli BL21(DE3)
The test can be described thus: ITC competitive binding experiments (FABP3 pre-saturated with a competing ligand). Particulars: FABP3 saturated with C18:1(n-9)t-carnitine, titrated with the FA, 25 °C. On the procedure: ITC experiments were carried out on the MicroCal™ iTC200 instrument (Malvern Instruments Ltd., Malvern, UK). Experiments were performed in KPi buffer without and with 0.1% (v/v) TX supplement. All titrations except for the determination of the heat capacity, ΔCp, were performed at 25 °C using 20–120 μM protein. Experiments for the determination of the ΔCp were performed at three different temperatures: 16, 25, and 37 °C. 280 μL of the protein solution in the sample cell were titrated with the ligand solution diluted to 200–1200 μM depending on the enzyme concentration (to achieve a 1:10 or 1:5 ratio). Every titration started with a small 0.3 μL injection introduced to compensate for the diffusion effects. One of the following injection profiles was chosen based on the activity of the ligand and binding heat released: 1.2 μL × 32 or 1.5 μL × 26—all with 120 s time spacing between every injection and 600 rpm. Each ligand was titrated at least two times. The reference baseline consisting of small peaks of identical size (titration of the corresponding ligand into the buffer) was subtracted from the data before fitting to correct for the heat of the ligand dilution. The first injection was excluded from each dataset. […]

The target in test [2] is T1, human FABP3. Briefly: ITC assay of ligand binding to apo-FABP3. Particulars: for Kd / ΔG / −TΔS / N (stoichiometry) / ΔH / binding to FABP3 (binding heat effects) by ITC: KPi pH 7.6, 25 °C; for N (stoichiometry): protein assumed 100% active and delipidated. On the procedure: ITC experiments were carried out on the MicroCal™ iTC200 instrument (Malvern Instruments Ltd., Malvern, UK). Experiments were performed in KPi buffer without and with 0.1% (v/v) TX supplement. […] Experiments for the determination of the ΔCp were performed at three different temperatures: 16, 25, and 37 °C. […] Every titration started with a small 0.3 μL injection introduced to compensate for the diffusion effects. One of the following injection profiles was chosen based on the activity of the ligand and binding heat released: 1.2 μL × 32 or 1.5 μL × 26—all with 120 s time spacing between every injection and 600 rpm. Each ligand was titrated at least two times. The reference baseline consisting of small peaks of identical size (titration of the corresponding ligand into the buffer) was subtracted from the data before fitting to correct for the heat of the ligand dilution. The first injection was excluded from each dataset. The final data were fitted to a theoretical titration curve (one set of sites fitting model) using MicroCal Origin 7 SR4 software (OriginLab, Northampton, MA, USA).
In general terms: Isothermal titration calorimetry measures the heat released or taken up as one component is titrated into another.

Test [3] addresses T1, human FABP3. Briefly: Ligand binding by NMR (2D 1H-15N HSQC chemical shift perturbations). Particulars: KPi buffer pH 7.6. Here is the method: NMR spectra were acquired on the 600 MHz Bruker Avance Neo spectrometer (Bruker Biospin GmbH, Rheinstetten, Germany) equipped with a 5-mm quadruple-resonance CryoProbe (QCI) with z-gradients. […] All experiments were performed in KPi buffer without or with TX and with the addition of 7% (v/v) D2O, 0.03% (v/v) NaN3, and 0.01% (v/v) SigmaFAST EDTA-free protease inhibitor cocktail to prevent protein degradation. The amount of organic solvent (ethanol or DMSO-d6) was below 2% (v/v) in each experiment.
3D HNCA, 3D HNCO, 3D HN(CA)CO, and 3D CBCA(CO)NH spectra were acquired for the backbone assignment. 3D [^1H,^1H]-nuclear Overhauser spectroscopy (NOESY)-^15N-heteronuclear single-quantum correlation (HSQC) spectrum was acquired using a mixing time of 100 ms and also used in the backbone assignment. 2D ^1H-^15N HSQC spectra were acquired for evaluation of the CSPs caused by the lipid binding. Chemical shifts were referenced internally to the residual water signal at 4.70 ppm relative to the 4,4-dimethyl-4-silapentane-1-sulfonic acid (DSS). […] Other complexes were analyzed by analogy and with the help of 3D [^1H-^1H]-NOESY-^15N-HSQC. All spectra were processed in TopSpin v. 4.1.1. (Bruker, Billerica, MA, USA) and analyzed in CARA 1.9.1. software. Residue-specific protein backbone amide assignment was performed based on the published chemical shifts. CSPs, Δδ, were calculated using Equation (1) with the scaling factor, α, which was set to 0.1 [67, 68]. (1) Δδ=1/2[δH2+α·δN^2],

The target of test [4] is T1, human FABP3. Briefly: ITC determination of heat capacity change at 16, 25 and 37 °C. In kind it is binding. The note with it: KPi with 0.1% TX; ΔH at 16, 25, 37 °C, linear regression. The text has this: Heat capacity changes, ΔCp, are important indicators of the structural changes during ligand-to-protein binding in various environmental conditions and may reflect changes in the static and dynamic properties of the protein [33, 34]. Moreover, it may represent interactions with extra supplements, such as salts and detergents, and larger processes, such as changes in protein folding, solvent-accessible surface area (SASA), or protonation states within the active site. […] Thermodynamic parameters for the remaining LCFAs were determined in the KPi + TX buffer, while LCACs were tested in the KPi buffer without any additive. Figure 7 represents an example of the overlays of the ITC experiments for C18:1(n-9)c and the corresponding LCAC performed at the following temperatures: 16, 25, and 37 °C.
ITC experiments were carried out on the MicroCal™ iTC200 instrument (Malvern Instruments Ltd., Malvern, UK). Experiments were performed in KPi buffer without and with 0.1% (v/v) TX supplement. All titrations except for the determination of the heat capacity, ΔCp, were performed at 25 °C using 20–120 μM protein. Experiments for the determination of the ΔCp were performed at three different temperatures: 16, 25, and 37 °C. 280 μL of the protein solution in the sample cell were titrated with the ligand solution diluted to 200–1200 μM depending on the enzyme concentration (to achieve a 1:10 or 1:5 ratio). Every titration started with a small 0.3 μL injection introduced to compensate for the diffusion effects. One of the following injection profiles was chosen based on the activity of the ligand and binding heat released: 1.2 μL × 32 or 1.5 μL × 26—all with 120 s time spacing between every injection and 600 rpm. Each ligand was titrated at least two times. The reference baseline consisting of small peaks of identical size (titration of the corresponding ligand into the buffer) was subtracted from the data before fitting to correct for the heat of the ligand dilution. The first injection was excluded from each dataset. The final data were fitted to a theoretical titration curve (one set of sites fitting model) using MicroCal Origin 7 SR4 software (OriginLab, Northampton, MA, USA).

Setting [5] is: KPi without TX, Competitive Binding model.
The mark [6] stands for this setting: KPi without TX, One Set of Sites model.
Setting [7] is: KPi + 0.10% TX, Competitive Binding model.
Where [8] appears, read: KPi + 0.10% TX, One Set of Sites model.

“And” between values parts separate entries of the source, which are not always exact repeats. Identical values can stand only once.

T1 sequence (P05413 whole entry): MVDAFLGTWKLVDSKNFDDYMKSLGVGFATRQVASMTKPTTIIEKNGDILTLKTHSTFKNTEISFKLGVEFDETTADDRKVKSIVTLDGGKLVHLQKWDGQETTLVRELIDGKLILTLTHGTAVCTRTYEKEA

As for `CCCCCCCCCC(=O)O` [C10:0, caprate], at human FABP3 [1] (setting [5]), the ΔG is -11.8 ± 0.1 kcal/mol and the ΔH was -14.1 ± 0.2 kcal/mol. Also, at human FABP3 [1] (setting [6]), the “-TΔS” value is 1.0 ± 0.1 kcal/mol, the Kd amounted to 360 ± 70 nM, the ΔG is -8.8 ± 0.1 kcal/mol and the ΔH was -9.8 ± 0.2 kcal/mol. For the same molecule, on human FABP3 [2] (with 0.1% TX), the Kd is 560 ± 20 nM, the ΔG is -8.535 ± 0.007 kcal/mol, the “−TΔS” value amounted to 4.7 ± 0.3 kcal/mol and the “N (stoichiometry)” value was 1.0. At human FABP3 [2] (without TX), the Kd is 252 ± 4 nM; the ΔG was -9.01 ± 0.01 kcal/mol; the ΔH was -11.09 kcal/mol and -11.09 ± 0.08 kcal/mol; the “−TΔS” value worked out at 2.08 ± 0.08 kcal/mol. In addition, on human FABP3 [2] (without TX), the “N (stoichiometry)” value came to 1.0.

`CCCCCCCCCCCC(=O)O[C@H](CC(=O)O)C[N+](C)(C)C` [C12:0-carnitine]: on human FABP3 [2] (without TX), the “binding to FABP3 (binding heat effects) by ITC” value is listed as “no binding”. The “binding to FABP3 by NMR (CSPs in 2D 1H-15N HSQC)” value (“binding to FABP3 by NMR” for short) at human FABP3 [3] is on record as “did not bind”.

As for `C[N+](C)(C)C[C@H](O)CC(=O)[O-]` [carnitine, L-carnitine], the “binding to FABP3 by NMR” value at human FABP3 [3] is listed as “neither bind nor interact”.

In the case of `CCCCCCCC(=O)O[C@H](CC(=O)O)C[N+](C)(C)C.[Cl-]` [C8:0-carnitine], the “binding to FABP3 (binding heat effects) by ITC” value at human FABP3 [2] (without TX) was “no binding”. Besides, the “binding to FABP3 by NMR” value on human FABP3 [3] is “did not bind”.

Take `CCCCCCCCCCCCCC(=O)O[C@H](CC(=O)O)C[N+](C)(C)C.[Cl-]` [C14:0-carnitine, miristoylcarnitine]: on human FABP3 [2] (without TX), the Kd was 11300 nM, the ΔG was -6.7 kcal/mol, the ΔH is -1.1 kcal/mol and the “−TΔS” value was -5.7 kcal/mol. Also, the “N (stoichiometry)” value on human FABP3 [2] (without TX) turned out to be 0.5. Also, the “binding to FABP3 by NMR” value on human FABP3 [3] is reported as “strong CSPs indicative of binding”.

Consider `CCCCCCCCCCCCCCCCCC(=O)O` [C18:0, stearate], for which, on human FABP3 [2] (with 0.1% TX), the Kd was determined as 700 ± 100 nM, the ΔG was -8.34 ± 0.04 kcal/mol, the ΔH was -6.4 ± 0.4 kcal/mol and the “−TΔS” value is -2.0 ± 0.4 kcal/mol. In addition, the “N (stoichiometry)” value at human FABP3 [2] (with 0.1% TX) is given as 1.0.

As for `CCCCCCCCCCCCCCCC(=O)O` [C16:0, palmitate], on human FABP3 [1] (setting [7]), the “-TΔS” value was 0.2 ± 0.1 kcal/mol, the ΔG is -11.62 kcal/mol and the ΔH was -11.77 kcal/mol. For the same molecule, at human FABP3 [1] (setting [8]), the “-TΔS” value was -1.14 ± 0.05 kcal/mol, the ΔG is -8.63 ± 0.01 kcal/mol and the ΔH is -7.49 ± 0.05 kcal/mol. Moreover, on human FABP3 [2] (with 0.1% TX), the ΔG is -9.34 ± 0.07 kcal/mol, the ΔH was -8.7 ± 0.9 kcal/mol, the “−TΔS” value is -0.6 ± 0.8 kcal/mol and the “N (stoichiometry)” value was determined as 1.0.

Turning to `CCCCCCCC/C=C/CCCCCCCC(=O)O` [C18:1(n-9)t, elaidate], at human FABP3 [2] (with 0.1% TX), binding was put at a Kd of 210 ± 20 nM, the ΔG was -9.12 ± 0.06 kcal/mol, the ΔH was -8.0 ± 0.9 kcal/mol and the “−TΔS” value was -1.1 ± 0.9 kcal/mol. The “N (stoichiometry)” value on human FABP3 [2] (with 0.1% TX) is reported as 1.0. On human FABP3 [4], this molecule displayed a ΔCp of −0.15 ± 0.02 kcal∙mol^−1∙K^−1.

Turning to `CCCCCCCCCCCCCC(=O)O` [C14:0, myristate], at human FABP3 [2] (with 0.1% TX), binding was put at a Kd of 300 ± 100 nM, the ΔG is -8.9 ± 0.2 kcal/mol, the ΔH is -10.9 ± 0.4 kcal/mol and the “−TΔS” value came to 1.9 ± 0.2 kcal/mol. Further, on human FABP3 [2] (with 0.1% TX), the “N (stoichiometry)” value is 1.0.

As for `CC/C=C\C/C=C\C/C=C\C/C=C\C/C=C\CCCC(=O)O` [C20:5(n-3)c, EPA], on human FABP3 [2] (with 0.1% TX), the Kd is 1600 ± 200 nM, the ΔG is -7.90 ± 0.07 kcal/mol, the ΔH was -17.4 ± 0.7 kcal/mol and the “−TΔS” value worked out at 9.5 ± 0.8 kcal/mol. In addition, on human FABP3 [2] (with 0.1% TX), the “N (stoichiometry)” value worked out at 1.0. The ΔCp at human FABP3 [4] was −0.37 ± 0.03 kcal∙mol^−1∙K^−1.

Turning to `CCCCCCCC(=O)O` [C8:0, caprylate], on human FABP3 [2] (with 0.1% TX), binding was put at a Kd of 1109 ± 1 nM, the ΔG was -8.13 ± 0.01 kcal/mol, the ΔH is -12.6 ± 0.3 kcal/mol and the “−TΔS” value came to 4.5 ± 0.3 kcal/mol. Besides, at human FABP3 [2] (with 0.1% TX), the “N (stoichiometry)” value was determined as 1.0. For the same molecule, at human FABP3 [2] (without TX), the Kd turned out to be 1860 ± 50 nM, the ΔG was -7.82 ± 0.02 kcal/mol, the ΔH was -8.01 ± 0.09 kcal/mol and the “−TΔS” value worked out at 0.19 ± 0.07 kcal/mol. Further, the “N (stoichiometry)” value on human FABP3 [2] (without TX) amounted to 1.0.

In the case of `CCCCCCCCCCCCCCCC(=O)SCCNC(=O)CCNC(=O)[C@H](O)C(C)(C)COP(=O)(O)OP(=O)(O)OC[C@H]1O[C@@H](n2cnc3c(N)ncnc32)[C@H](O)[C@@H]1OP(=O)(O)O` [C16:0-CoA, palmitoyl-CoA], at human FABP3 [2] (without TX), the Kd turned out to be 8900 ± 1200 nM, the ΔG was -6.90 ± 0.08 kcal/mol, the ΔH was -5.04 ± 0.09 kcal/mol and the “−TΔS” value is -1.86 ± 0.01 kcal/mol. Also, at human FABP3 [2] (without TX), the “N (stoichiometry)” value was determined as 1.0. The “effect of detergent addition on binding to FABP3 (ITC)” value on human FABP3 [2] (KPi with TX detergent) is given as “completely blocked the binding”. The “binding to FABP3 by NMR” value on human FABP3 [3] is “strong CSPs indicative of binding”.

As for Triton™ X-100 [TX], the “binding to FABP3 by NMR” value at human FABP3 [3] is “did not interact with the FABP3 core structure”.

Usually Kd stands for the concentration at which binding is half-saturated. Low values mean a tighter complex, high ones a looser complex.

Source of the values: publication PMC10058761, “Heart-Type Fatty Acid Binding Protein Binds Long-Chain Acylcarnitines and Protects against Lipotoxicity” (International Journal of Molecular Sciences, 2023).
